Values joined by “and” are separate entries in the source; they are usually repeats but may differ in a detail not shown here. Equal values may be shown once. Inconclusive results and toxic doses are left out. Square brackets hold non-standard residues; d marks the D form. Peptide text beside a SMILES is read from it. ξ: configuration not given here. ξD = NC(CC(=O)O)C(=O)O
Test system: L1210 leukemia ip in BDF1 mice, survival T/C
Test: NCI In Vivo Anticancer Drug Screen. Data for tumor model L1210 Leukemia (intraperitoneal) in B6D2F1 (BDF1) mice
Settings: endpoint: mean survival time, higher = longer survival
In short: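 Survival endpoint. Drug-treated group vs vehicle group, expressed as T divided by C. Tumor passaged by transplantation.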

[1] = dose: 100.0 mg/kg/injection, schedule: Q01DX009 (ip), vehicle: Klucel (hydroxypropylcellulose) (HPC)
[2] = dose: 100.0 mg/kg/injection, schedule: Q04DX003 (ip), vehicle: Klucel (hydroxypropylcellulose) (HPC)
[3] = dose: 200.0 mg/kg/injection, schedule: Q01DX009 (ip), vehicle: Klucel (hydroxypropylcellulose) (HPC)
[4] = dose: 200.0 mg/kg/injection, schedule: Q04DX003 (ip), vehicle: Klucel (hydroxypropylcellulose) (HPC)
[5] = dose: 400.0 mg/kg/injection, schedule: Q01DX009 (ip), vehicle: Klucel (hydroxypropylcellulose) (HPC)
[6] = dose: 400.0 mg/kg/injection, schedule: Q04DX003 (ip), vehicle: Klucel (hydroxypropylcellulose) (HPC)
[7] = dose: 100.0 mg/kg/injection, schedule: Q01DX009 (ip), vehicle: saline
[8] = dose: 100.0 mg/kg/injection, schedule: Q04DX003 (ip), vehicle: saline
[9] = dose: 200.0 mg/kg/injection, schedule: Q01DX009 (ip), vehicle: saline
[10] = dose: 200.0 mg/kg/injection, schedule: Q04DX003 (ip), vehicle: saline
[11] = dose: 400.0 mg/kg/injection, schedule: Q04DX003 (ip), vehicle: saline
[12] = dose: 100.0 mg/kg/injection, schedule: Q01DX009 (ip), vehicle: saline with Tween-80
[13] = dose: 100.0 mg/kg/injection, schedule: Q04DX003 (ip), vehicle: saline with Tween-80
[14] = dose: 200.0 mg/kg/injection, schedule: Q01DX009 (ip), vehicle: saline with Tween-80
[15] = dose: 200.0 mg/kg/injection, schedule: Q04DX003 (ip), vehicle: saline with Tween-80
[16] = dose: 400.0 mg/kg/injection, schedule: Q01DX009 (ip), vehicle: saline with Tween-80
[17] = dose: 400.0 mg/kg/injection, schedule: Q04DX003 (ip), vehicle: saline with Tween-80
[18] = dose: 100.0 mg/kg/injection, schedule: Q04DX002 (ip), vehicle: Klucel (hydroxypropylcellulose) (HPC)
[19] = dose: 200.0 mg/kg/injection, schedule: Q04DX002 (ip), vehicle: Klucel (hydroxypropylcellulose) (HPC)
[20] = dose: 400.0 mg/kg/injection, schedule: Q04DX002 (ip), vehicle: Klucel (hydroxypropylcellulose) (HPC)
[21] = dose: 100.0 mg/kg/injection, schedule: Q01DX001 (ip), vehicle: saline with Tween-80
[22] = dose: 200.0 mg/kg/injection, schedule: Q01DX001 (ip), vehicle: saline with Tween-80
[23] = dose: 400.0 mg/kg/injection, schedule: Q01DX001 (ip), vehicle: saline with Tween-80

NC(N)=N/C(N)=N/NC(=O)c1ccncc1
T/C (dose: 66.0 mg/kg/injection, schedule: Q01DX Z (ip), vehicle: methylcellulose (MC)): 100 % of control
T/C (dose: 93.0 mg/kg/injection, schedule: Q01DX Z (ip), vehicle: methylcellulose (MC)): 89 % of control
T/C (dose: 140.0 mg/kg/injection, schedule: Q01DX Z (ip), vehicle: methylcellulose (MC)): 91 % of control

CCCCCC[P+](=O)CCCCCC
T/C (dose: 100.0 mg/kg/injection, schedule: Q04DX002 (ip), vehicle: gum acacia): 97 % of control
T/C (dose: 200.0 mg/kg/injection, schedule: Q04DX002 (ip), vehicle: gum acacia): 103 % of control

Cc1ccc(S(=O)(=O)Oc2ccc(I)cc2)cc1
T/C [1]: 107 % of control
T/C [2]: 100 % of control
T/C [3]: 98 % of control
T/C [4]: 105 % of control
T/C [5]: 103 % of control
T/C [6]: 97 % of control

O=[N+]([O-])c1ccc(S(=O)(=O)O/N=C2\c3ccccc3-c3ccc([N+](=O)[O-])cc32)cc1
T/C [1]: 161 % of control
T/C [2]: 97 % of control
T/C [3]: 109 % of control
T/C [4]: 98 % of control
T/C [5]: 109 % of control
T/C [6]: 95 % of control

CC12CC3CC(C1)CC(C(=O)O)(C3)C2
T/C [7]: 110 % of control
T/C [8]: 97 % of control
T/C [9]: 100 % of control
T/C [10]: 97 % of control
T/C [11]: 101 % of control

CCN(c1ccc(Br)cc1)c1ccc(Br)cc1
T/C (dose: 100.0 mg/kg/injection, schedule: Q01DX001 (ip), vehicle: carboxymethylcellulose (CMC)): 100 % of control
T/C (dose: 200.0 mg/kg/injection, schedule: Q01DX001 (ip), vehicle: carboxymethylcellulose (CMC)): 94 % of control
T/C (dose: 400.0 mg/kg/injection, schedule: Q01DX001 (ip), vehicle: carboxymethylcellulose (CMC)): 105 % of control

COc1cc(OC)cc(C2N(Cc3ccc(OC)c(OC)c3)CCN2Cc2ccc(OC)c(OC)c2)c1
T/C [12]: 100 % of control
T/C [13]: 104 % of control
T/C [14]: 108 % of control
T/C [15]: 100 % of control
T/C [16]: 101 % of control
T/C [17]: 98 % of control

C/C(=N\N=C(/C)c1cccc(Br)c1)c1cccc(Br)c1
T/C [2]: 92 % of control
T/C [4]: 90 % of control
T/C [6]: 95 % of control

O=C(O)Cc1ccc(Cl)c(Cl)c1
T/C (dose: 50.0 mg/kg/injection, schedule: Q01DX009 (ip), vehicle: saline): 94 % of control
T/C [7]: 105 % of control
T/C [9]: 108 % of control

CCOC(=O)c1[nH]c(C)c(C(=O)OC(C)(C)C)c1C
T/C (dose: 100.0 mg/kg/injection, schedule: Q01DX001 (ip), vehicle: Klucel (hydroxypropylcellulose) (HPC)): 95 % of control
T/C [2]: 95 % of control
T/C (dose: 200.0 mg/kg/injection, schedule: Q01DX001 (ip), vehicle: Klucel (hydroxypropylcellulose) (HPC)): 93 % of control
T/C [4]: 106 % of control
T/C (dose: 400.0 mg/kg/injection, schedule: Q01DX001 (ip), vehicle: Klucel (hydroxypropylcellulose) (HPC)): 92 % of control
T/C [6]: 103 % of control

CCC(CO)Nc1nc2ccc(Cl)cc2c2ccccc12 (configuration not stated)
T/C [1]: 104 % of control
T/C [2]: 102 % of control
T/C [3]: 90 % of control
T/C [4]: 111 % of control
T/C [5]: 103 % of control
T/C [6]: 107 % of control

COc1ccc(NC(=O)/C=C/C(=O)O)cc1
T/C [18]: 103 % of control
T/C [19]: 95 % of control
T/C [20]: 120 % of control

O=C(Nc1ccccc1)OCC1CC2CCC1C2 (configuration not stated)
T/C [1]: 96 % of control
T/C [2]: 95 % of control
T/C [3]: 94 % of control
T/C [4]: 93 % of control
T/C [5]: 96 % of control
T/C [6]: 93 % of control

CCOC(=O)CNC(=O)Oc1cccc2cccnc12
T/C [12]: 103 % of control
T/C [14]: 101 % of control

CC1C(=O)OC2CC[N+]3(CC(=O)c4ccc(Br)cc4)CC=C(COC(=O)C(C)(O)C1(C)O)C23 (configuration not stated)
T/C [8]: 104 % of control
T/C [10]: 102 % of control
T/C [11]: 87 % of control

CCCCCCCCCCCCOC(=O)/C=C\C(=O)NC(N)=O
T/C (dose: 25.0 mg/kg/injection, schedule: Q04DX003 (ip), vehicle: Klucel (hydroxypropylcellulose) (HPC)): 102 % of control
T/C (dose: 50.0 mg/kg/injection, schedule: Q04DX003 (ip), vehicle: Klucel (hydroxypropylcellulose) (HPC)): 97 % of control
T/C [2]: 105 % of control and 91 % of control
T/C (dose: 150.0 mg/kg/injection, schedule: Q04DX003 (ip), vehicle: Klucel (hydroxypropylcellulose) (HPC)): 96 % of control

NCC(=O)NC(CC(=O)O)C(=O)O (configuration not stated) (H-Gly-[ξD]-OH)
T/C (dose: 100.0 mg/kg/injection, schedule: Q01DX001 (ip), vehicle: saline): 97 % of control
T/C (dose: 200.0 mg/kg/injection, schedule: Q01DX001 (ip), vehicle: saline): 104 % of control
T/C (dose: 400.0 mg/kg/injection, schedule: Q01DX001 (ip), vehicle: saline): 97 % of control

O=c1[nH]c(=S)c2c3c(sc2[nH]1)CCCC3
T/C (dose: 100.0 mg/kg/injection, schedule: Q04DX003 (ip), vehicle: saline sonified): 95 % of control
T/C (dose: 200.0 mg/kg/injection, schedule: Q04DX003 (ip), vehicle: saline sonified): 97 % of control
T/C (dose: 400.0 mg/kg/injection, schedule: Q04DX003 (ip), vehicle: saline sonified): 93 % of control

C/C(=N/NC(=O)c1ccncc1)C(=O)O
T/C (dose: 25.0 mg/kg/injection, schedule: Q04DX003 (ip), vehicle: saline with Tween-80): 92 % of control
T/C (dose: 50.0 mg/kg/injection, schedule: Q04DX003 (ip), vehicle: saline with Tween-80): 93 % of control
T/C [13]: 101 % of control

CN(Cc1ccccc1)C(=O)Nc1ccccc1
T/C [18]: 98 % of control
T/C [19]: 103 % of control
T/C [20]: 95 % of control

NC(CCC(=O)Nc1cccc2ccccc12)C(=O)O (configuration not stated)
T/C [13]: 105 % of control
T/C [15]: 100 % of control
T/C [17]: 106 % of control

O=C(Cc1ccccc1)OCCc1ccccc1
T/C [1]: 98 % of control and 105 % of control
T/C [2]: 94 % of control and 98 % of control
T/C [3]: 97 % of control and 89 % of control
T/C [4]: 94 % of control and 100 % of control
T/C [5]: 101 % of control and 104 % of control
T/C [6]: 96 % of control and 100 % of control

O=C(O)c1ccc(=O)oc1
T/C (dose: 25.0 mg/kg/injection, schedule: Q01DX009 (ip), vehicle: Klucel (hydroxypropylcellulose) (HPC)): 100 % of control
T/C (dose: 50.0 mg/kg/injection, schedule: Q01DX009 (ip), vehicle: Klucel (hydroxypropylcellulose) (HPC)): 87 % of control
T/C [1]: 90 % of control

NC(=O)CN1C(=O)C2C3C=CC(C3)C2C1=O (configuration not stated)
T/C [13]: 97 % of control
T/C [15]: 109 % of control
T/C [17]: 97 % of control

Cc1cc(C(=O)C(=O)O)c(CN2C(=O)c3ccccc3C2=O)c(=O)n1C
T/C [21]: 97 % of control
T/C [22]: 107 % of control
T/C [23]: 97 % of control

C=C1C(=O)OC2CC3(C)OC3C3OC3C3=CC(OC3=O)C12 (configuration not stated)
T/C (dose: 5.0 mg/kg/injection, schedule: Q01DX001 (ip), vehicle: carboxymethylcellulose (CMC)): 112 % of control

CCC(=O)O[C@H]1CC[C@H]2[C@@H]3C[C@H](F)C4=CC(=O)CC[C@]4(C)[C@H]3CC[C@]12C
T/C [12]: 102 % of control
T/C [14]: 93 % of control
T/C [16]: 91 % of control

O=C1C=CC(=O)C2C3c4ccccc4C(c4ccccc43)C12 (configuration not stated)
T/C [21]: 93 % of control
T/C (dose: 100.0 mg/kg/injection, schedule: Q04DX002 (ip), vehicle: saline): 93 % of control
T/C [22]: 108 % of control
T/C (dose: 200.0 mg/kg/injection, schedule: Q04DX002 (ip), vehicle: saline): 101 % of control
T/C [23]: 100 % of control
T/C (dose: 400.0 mg/kg/injection, schedule: Q04DX002 (ip), vehicle: saline): 90 % of control
